Source: PubChem BioAssay (NCI)
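All cell lines were grown in 96-well plates and treated with compound for 48 hours. TGI marks complete inhibition of growth.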

Assays:
Assay in all cases: inhibition of tumour cell growth, NCI panel, 48 h
NCI-H23 lung = tested on: NCI-H23 lung
UACC-257 melanoma = tested on: UACC-257 melanoma
CAKI-1 renal = tested on: CAKI-1 renal
COLO 205 colon = tested on: COLO 205 colon
OVCAR-8 ovarian = tested on: OVCAR-8 ovarian
SNB-19 CNS = tested on: SNB-19 CNS
RPMI-8226 leukemia = tested on: RPMI-8226 leukemia
MALME-3M melanoma = tested on: MALME-3M melanoma
NCI-H522 lung = tested on: NCI-H522 lung
MOLT-4 leukemia = tested on: MOLT-4 leukemia
HOP-62 NSCLC = tested on: HOP-62 NSCLC
DU-145 prostate = tested on: DU-145 prostate
CCRF-CEM leukemia = tested on: CCRF-CEM leukemia
HCC-2998 colon = tested on: HCC-2998 colon
NCI-H460 lung = tested on: NCI-H460 lung
A498 renal = tested on: A498 renal
LOX IMVI melanoma = tested on: LOX IMVI melanoma
SF-295 CNS = tested on: SF-295 CNS
NCI-H226 lung = tested on: NCI-H226 lung
HCT-116 colon = tested on: HCT-116 colon
HOP-92 NSCLC = tested on: HOP-92 NSCLC
MDA-MB-231 breast = tested on: MDA-MB-231 breast
MDA-MB-435 = tested on: MDA-MB-435
NCI/ADR-RES ovarian = tested on: NCI/ADR-RES ovarian
BT-549 breast = tested on: BT-549 breast
SK-OV-3 ovarian = tested on: SK-OV-3 ovarian
786-0 renal = tested on: 786-0 renal
A549 NSCLC = tested on: A549 NSCLC
OVCAR-5 ovarian = tested on: OVCAR-5 ovarian
EKVX NSCLC = tested on: EKVX NSCLC
SK-MEL-2 melanoma = tested on: SK-MEL-2 melanoma
T-47D breast = tested on: T-47D breast
ACHN renal = tested on: ACHN renal
UACC-62 melanoma = tested on: UACC-62 melanoma
OVCAR-3 ovarian = tested on: OVCAR-3 ovarian
TK-10 renal = tested on: TK-10 renal
SR leukemia = tested on: SR leukemia
IGROV1 ovarian = tested on: IGROV1 ovarian
SK-MEL-5 melanoma = tested on: SK-MEL-5 melanoma
HL-60(TB) leukemia = tested on: HL-60(TB) leukemia
RXF 393 renal = tested on: RXF 393 renal
HS 578T breast = tested on: HS 578T breast
HCT-15 colon = tested on: HCT-15 colon
KM12 colon = tested on: KM12 colon
PC-3 prostate = tested on: PC-3 prostate
SW-620 colon = tested on: SW-620 colon
HT29 colon = tested on: HT29 colon
SK-MEL-28 melanoma = tested on: SK-MEL-28 melanoma
OVCAR-4 ovarian = tested on: OVCAR-4 ovarian
SN12C renal = tested on: SN12C renal
K-562 leukemia = tested on: K-562 leukemia
M14 melanoma = tested on: M14 melanoma
SF-268 CNS = tested on: SF-268 CNS
SF-539 CNS = tested on: SF-539 CNS
MCF7 breast = tested on: MCF7 breast
SNB-75 CNS = tested on: SNB-75 CNS
MDA-N = tested on: MDA-N
U251 CNS = tested on: U251 CNS
UO-31 renal = tested on: UO-31 renal

`COc1nc(N)c(N=O)c(OCc2ccccc2)n1` gave a TGI (NCI-H23 lung) greater than 10 µM, a TGI (UACC-257 melanoma) greater than 10 µM and a TGI (CAKI-1 renal) greater than 10 µM. It also gave a TGI (COLO 205 colon) of 2.37 µM, a TGI (OVCAR-8 ovarian) greater than 10 µM and a TGI (SNB-19 CNS) greater than 10 µM. The TGI (RPMI-8226 leukemia) was greater than 10 µM, the TGI (MALME-3M melanoma) was 5.97 µM and the TGI (NCI-H522 lung) was 3.59 µM. It also gave a TGI (MOLT-4 leukemia) greater than 10 µM, a TGI (HOP-62 NSCLC) greater than 10 µM and a TGI (DU-145 prostate) greater than 10 µM. For the same compound, the TGI (CCRF-CEM leukemia) was 6.84 µM, the TGI (HCC-2998 colon) was greater than 10 µM and the TGI (NCI-H460 lung) was greater than 10 µM. For the same compound, the TGI (A498 renal) was greater than 10 µM, the TGI (LOX IMVI melanoma) was greater than 10 µM and the TGI (SF-295 CNS) was greater than 10 µM. For the same compound, the TGI (NCI-H226 lung) was greater than 10 µM, the TGI (HCT-116 colon) was greater than 10 µM and the TGI (HOP-92 NSCLC) was greater than 10 µM. For the same compound, the TGI (MDA-MB-231 breast) was greater than 10 µM, the TGI (MDA-MB-435) was greater than 10 µM and the TGI (NCI/ADR-RES ovarian) was greater than 10 µM. For the same compound, the TGI (BT-549 breast) was greater than 10 µM, the TGI (SK-OV-3 ovarian) was greater than 10 µM and the TGI (786-0 renal) was greater than 10 µM. It also gave a TGI (A549 NSCLC) greater than 10 µM, a TGI (OVCAR-5 ovarian) greater than 10 µM and a TGI (EKVX NSCLC) greater than 10 µM. It also gave a TGI (SK-MEL-2 melanoma) greater than 10 µM, a TGI (T-47D breast) of 5.49 µM and a TGI (ACHN renal) greater than 10 µM. The TGI (UACC-62 melanoma) was greater than 10 µM, the TGI (OVCAR-3 ovarian) was greater than 10 µM and the TGI (TK-10 renal) was greater than 10 µM. The TGI (SR leukemia) was greater than 10 µM, the TGI (IGROV1 ovarian) was greater than 10 µM and the TGI (SK-MEL-5 melanoma) was greater than 10 µM. For the same compound, the TGI (HL-60(TB) leukemia) was greater than 10 µM, the TGI (RXF 393 renal) was greater than 10 µM and the TGI (HS 578T breast) was greater than 10 µM. The TGI (HCT-15 colon) was greater than 10 µM, the TGI (KM12 colon) was greater than 10 µM and the TGI (PC-3 prostate) was greater than 10 µM. The TGI (SW-620 colon) was 4.35 µM, the TGI (HT29 colon) was greater than 10 µM and the TGI (SK-MEL-28 melanoma) was greater than 10 µM. For the same compound, the TGI (OVCAR-4 ovarian) was greater than 10 µM, the TGI (SN12C renal) was greater than 10 µM and the TGI (K-562 leukemia) was greater than 10 µM. For the same compound, the TGI (M14 melanoma) was greater than 10 µM, the TGI (SF-268 CNS) was greater than 10 µM and the TGI (SF-539 CNS) was greater than 10 µM. It also gave a TGI (MCF7 breast) greater than 10 µM, a TGI (SNB-75 CNS) greater than 10 µM and a TGI (MDA-N) greater than 10 µM. The TGI (U251 CNS) was greater than 10 µM.
`COc1ccc(/C=C2\N=C(N/N=C\C(O)C(O)C(O)C(O)CO)NC2=O)cc1` (stereo not drawn) was tested, and the TGI (NCI-H23 lung) was 54 µM, the TGI (UACC-257 melanoma) was greater than 100 µM and the TGI (CAKI-1 renal) was greater than 100 µM. It also gave a TGI (COLO 205 colon) greater than 100 µM, a TGI (OVCAR-8 ovarian) of 88.3 µM and a TGI (RPMI-8226 leukemia) greater than 100 µM. The TGI (MALME-3M melanoma) was 43.4 µM, the TGI (NCI-H522 lung) was 46 µM and the TGI (MOLT-4 leukemia) was 62.3 µM. It also gave a TGI (HOP-62 NSCLC) of 54.9 µM, a TGI (DU-145 prostate) greater than 100 µM and a TGI (CCRF-CEM leukemia) greater than 100 µM. The TGI (HCC-2998 colon) was greater than 100 µM, the TGI (NCI-H460 lung) was greater than 100 µM and the TGI (A498 renal) was 93 µM. For the same compound, the TGI (LOX IMVI melanoma) was greater than 100 µM, the TGI (SF-295 CNS) was greater than 100 µM and the TGI (NCI-H226 lung) was greater than 100 µM. It also gave a TGI (HCT-116 colon) greater than 100 µM, a TGI (HOP-92 NSCLC) of 33.9 µM and a TGI (MDA-MB-231 breast) of 88.5 µM. It also gave a TGI (MDA-MB-435) of 91.1 µM, a TGI (NCI/ADR-RES ovarian) greater than 100 µM and a TGI (BT-549 breast) of 50.6 µM. It also gave a TGI (SK-OV-3 ovarian) of 50.3 µM, a TGI (786-0 renal) greater than 100 µM and a TGI (A549 NSCLC) greater than 100 µM. For the same compound, the TGI (OVCAR-5 ovarian) was greater than 100 µM, the TGI (EKVX NSCLC) was greater than 100 µM and the TGI (SK-MEL-2 melanoma) was 36.6 µM. It also gave a TGI (T-47D breast) of 27.7 µM, a TGI (ACHN renal) greater than 100 µM and a TGI (OVCAR-3 ovarian) of 33.7 µM. It also gave a TGI (TK-10 renal) greater than 100 µM, a TGI (SR leukemia) greater than 100 µM and a TGI (IGROV1 ovarian) greater than 100 µM. For the same compound, the TGI (SK-MEL-5 melanoma) was greater than 100 µM, the TGI (HL-60(TB) leukemia) was greater than 100 µM and the TGI (RXF 393 renal) was greater than 100 µM. The TGI (HS 578T breast) was 71.7 µM, the TGI (HCT-15 colon) was greater than 100 µM and the TGI (KM12 colon) was greater than 100 µM. It also gave a TGI (UO-31 renal) greater than 100 µM, a TGI (PC-3 prostate) of 69.5 µM and a TGI (SW-620 colon) greater than 100 µM. The TGI (HT29 colon) was greater than 100 µM, the TGI (SK-MEL-28 melanoma) was greater than 100 µM and the TGI (OVCAR-4 ovarian) was 53 µM. The TGI (SN12C renal) was 52.2 µM, the TGI (K-562 leukemia) was greater than 100 µM and the TGI (M14 melanoma) was 35.7 µM. The TGI (SF-268 CNS) was 63.2 µM, the TGI (SF-539 CNS) was 38.5 µM and the TGI (MCF7 breast) was greater than 100 µM. It also gave a TGI (SNB-75 CNS) of 54.3 µM, a TGI (MDA-N) of 39.6 µM and a TGI (U251 CNS) of 42.7 µM.
`CN(C)CCn1c(=O)c2ccc(NCCCN(C)CCCNc3ccc4c(=O)n(CCN(C)C)c(=O)n5c6ccccc6c(=O)c3c45)c3c(=O)c4ccccc4n(c1=O)c23` gave a TGI (NCI-H23 lung) of 0.546 µM, a TGI (UACC-257 melanoma) of 1.82 µM and a TGI (CAKI-1 renal) of 0.426 µM. It also gave a TGI (COLO 205 colon) of 0.376 µM, a TGI (OVCAR-8 ovarian) of 0.49 µM and a TGI (SNB-19 CNS) of 1.33 µM. The TGI (RPMI-8226 leukemia) was 0.231 µM, the TGI (MALME-3M melanoma) was 2.33 µM and the TGI (NCI-H522 lung) was 0.517 µM. It also gave a TGI (MOLT-4 leukemia) of 0.0853 µM, a TGI (HOP-62 NSCLC) of 0.838 µM and a TGI (DU-145 prostate) of 0.533 µM. The TGI (CCRF-CEM leukemia) was 0.0819 µM, the TGI (HCC-2998 colon) was 0.224 µM and the TGI (NCI-H460 lung) was 0.139 µM. It also gave a TGI (A498 renal) of 2.13 µM, a TGI (LOX IMVI melanoma) of 0.164 µM and a TGI (SF-295 CNS) of 1.54 µM. For the same compound, the TGI (NCI-H226 lung) was 0.535 µM, the TGI (HCT-116 colon) was 1.03 µM and the TGI (HOP-92 NSCLC) was 0.735 µM. It also gave a TGI (MDA-MB-231 breast) of 0.54 µM, a TGI (MDA-MB-435) of 0.127 µM and a TGI (NCI/ADR-RES ovarian) of 1.48 µM. It also gave a TGI (BT-549 breast) of 1.75 µM, a TGI (SK-OV-3 ovarian) of 2.43 µM and a TGI (786-0 renal) of 1.08 µM. It also gave a TGI (A549 NSCLC) of 0.472 µM, a TGI (OVCAR-5 ovarian) of 3.56 µM and a TGI (EKVX NSCLC) of 1.1 µM. For the same compound, the TGI (SK-MEL-2 melanoma) was 2.44 µM, the TGI (T-47D breast) was 8.33 µM and the TGI (ACHN renal) was 0.949 µM. It also gave a TGI (UACC-62 melanoma) of 1.58 µM, a TGI (OVCAR-3 ovarian) of 1.21 µM and a TGI (TK-10 renal) of 1.48 µM. The TGI (SR leukemia) was 0.504 µM, the TGI (IGROV1 ovarian) was 0.194 µM and the TGI (SK-MEL-5 melanoma) was 1.17 µM. It also gave a TGI (HL-60(TB) leukemia) of 1.06 µM, a TGI (RXF 393 renal) of 0.362 µM and a TGI (HS 578T breast) of 1.76 µM. The TGI (HCT-15 colon) was 0.421 µM, the TGI (KM12 colon) was 0.59 µM and the TGI (UO-31 renal) was 0.53 µM. It also gave a TGI (PC-3 prostate) of 0.654 µM, a TGI (SW-620 colon) of 0.231 µM and a TGI (HT29 colon) of 1.06 µM. The TGI (SK-MEL-28 melanoma) was 1.94 µM, the TGI (SN12C renal) was 1.18 µM and the TGI (K-562 leukemia) was 1.3 µM. The TGI (M14 melanoma) was 1.9 µM, the TGI (SF-268 CNS) was 2.11 µM and the TGI (SF-539 CNS) was 1.78 µM. For the same compound, the TGI (MCF7 breast) was 0.904 µM, the TGI (SNB-75 CNS) was 0.334 µM and the TGI (MDA-N) was 1.6 µM. For the same compound, the TGI (U251 CNS) was 1.06 µM.
